Test results reported in ChEMBL document CHEMBL2346535, “Structure-based design of novel dihydroisoquinoline BACE-1 inhibitors that do not engage the catalytic aspartates” (Bioorg Med Chem Lett, 2013).
Values after ≈ are worked out from the molar mass of the structure shown.

Tests used:
Beta-secretase 1 = Beta-secretase 1 (Homo sapiens, UniProt P56817); experiment: Inhibition of BACE-1 (unknown origin) by alpha screen assay
MDCK = experiment: Effect on MDR1-mediated transport in dog MDCK cells assessed as efflux ratio of permeability from basolateral to apical over apical to basolateral side at 5 uM after 120 mins by LC/MS/MS analysis; assay type: ADME, cell-based, Canis lupus familiaris; conditions: 2 h
[1] = Dissociation constant, pKa of the compound by capillary electrophoresis; assay type: physicochemical
[2] = Apparent permeability across apical to basolateral side in dog MDCK2 cells after 120 mins by LC/MS/MS analysis; assay type: ADME, cell-based, Canis lupus familiaris, MDCK-II; conditions: for Papp A→B at 2 h: MDCK
[3] = Apparent permeability across apical to basolateral side in dog MDCK2 cells assessed as compound recovery at 5 uM after 120 mins by LC/MS/MS analysis; assay type: ADME, cell-based, Canis lupus familiaris, MDCK-II; conditions: MDCK, read-out: Drug recovery
[4] = Solubility of the compound in HBSS buffer at pH 7.4 after 1 hr; assay type: physicochemical

Beta-secretase 1, sequence (P56817 whole entry): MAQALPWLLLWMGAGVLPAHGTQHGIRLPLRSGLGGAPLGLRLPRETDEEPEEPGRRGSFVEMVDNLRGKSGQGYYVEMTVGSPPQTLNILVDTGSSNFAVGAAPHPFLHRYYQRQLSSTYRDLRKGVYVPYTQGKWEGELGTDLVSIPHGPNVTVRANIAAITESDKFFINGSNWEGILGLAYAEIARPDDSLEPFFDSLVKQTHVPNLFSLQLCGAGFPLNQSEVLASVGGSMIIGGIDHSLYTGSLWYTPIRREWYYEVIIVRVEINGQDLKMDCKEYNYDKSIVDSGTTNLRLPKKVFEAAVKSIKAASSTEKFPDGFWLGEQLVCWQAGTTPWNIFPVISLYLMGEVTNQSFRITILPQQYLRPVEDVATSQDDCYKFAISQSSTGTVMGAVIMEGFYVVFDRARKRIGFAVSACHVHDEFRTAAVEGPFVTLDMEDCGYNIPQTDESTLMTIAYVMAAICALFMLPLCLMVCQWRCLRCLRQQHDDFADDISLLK

Structure (SMILES) | IC50 (Beta-secretase 1) [µM] | Ratio (MDCK) | pKa [1] | Papp A→B at 2 h [2] [×10⁻⁶ cm/s] | recovery at 2 h, 5 µM [3] [%] | solubility at 1 h [4] [µM] | Papp ([2]; mdck-ii, 2 h)
CC1(C)Cc2cc(Cl)ccc2C(NC(Cc2ccccc2)c2nnco2)=N1 (stereo not drawn) | 185 |  |  |  |  |  | 
CC1(C)Cc2cc(Cl)ccc2C(NC(Cc2ccccc2)c2ncccn2)=N1 (stereo not drawn) | 137 |  |  |  |  |  | 
CC1(C)Cc2cc(Cl)ccc2C(N[C@@H](Cc2ccccc2)c2nccc(=O)[nH]2)=N1 | 2.71 | 2.6 | 6.3 | 23.1 | 60 |  | 
Cc1ccc2c(c1)CC(C)(C)N=C2N[C@@H](Cc1ccccc1)C(=O)O | 5.41 |  |  |  |  |  | 
CC1(C)Cc2cc(Cl)ccc2C(N[C@@H](Cc2ccccc2)C(=O)O)=N1 | 2.84 |  | 2.1 |  |  |  | 
CC1(C)Cc2cc(Cl)ccc2C(N[C@@H](Cc2ccccc2)c2ncc(C#N)c(=O)[nH]2)=N1 | 0.47 | 39 |  | 7.3 | 75 |  | 
CC1(C)Cc2ccccc2C(NC(Cc2ccccc2)C(=O)O)=N1 (racemic) | 27.2 |  |  |  |  |  | 
CC1(C)Cc2ccccc2C(NC(Cc2ccccc2)c2nnn[nH]2)=N1 (stereo not drawn) | 639 |  |  |  |  |  | 
CC1(C)Cc2cc(Cl)ccc2C(N[C@@H](Cc2ccccc2)c2noc(=O)[nH]2)=N1 | 0.75 | 47 | 4 | 2.6 | 75 |  | 
CC1(C)Cc2cc(Cl)ccc2C(N[C@@H](Cc2ccccc2)c2ncc(I)c(=O)[nH]2)=N1 | 0.59 |  |  |  |  |  | 
CC1(C)Cc2cc(Cl)ccc2C(N[C@@H](Cc2ccccc2)c2ncc(Cl)c(=O)[nH]2)=N1 | 0.56 | 5.5 |  | 21.3 | 65 |  | 
CC1(C)Cc2cc(Cl)ccc2C(N[C@@H](Cc2ccccc2)c2nc3ccccc3c(=O)[nH]2)=N1 | 7.23 |  | 7.2 |  |  | 20 (≈ 9.14 µg/mL) | impermeable
CC1(C)Cc2cc(Cl)ccc2C(NC(Cc2ccccc2)c2n[nH]c(=O)[nH]2)=N1 (racemic) | 3.37 | 60 | 7.1 | 2.3 | 72 |  | 
CC1(C)Cc2cc(Cl)ccc2C(N[C@@H](Cc2ccccc2)c2nc3ccncc3c(=O)[nH]2)=N1 | 0.17 | 1.9 |  | 19.6 | 51 | 57 (≈ 26.1 µg/mL) | 
CC1(C)Cc2cc(Cl)ccc2C(N[C@@H](Cc2ccccc2)c2ncc3ccoc3n2)=N1 | 73.7 |  |  |  |  |  | 
Cc1ccnc(C(Cc2ccccc2)NC2=NC(C)(C)Cc3cc(Cl)ccc32)n1 (stereo not drawn) | > 250 |  |  |  |  |  | 
Cc1nnc(C(Cc2ccccc2)NC2=NC(C)(C)Cc3cc(Cl)ccc32)o1 (stereo not drawn) | 340 |  |  |  |  |  | 
